Test results published in patent US20230322770A1, “SUBSTITUTED HETEROARYL COMPOUNDS USEFUL AS INHIBITORS OF TLR9” (BRISTOL-MYERS SQUIBB COMPANY, priority 2020, published 2023).

Experiments:
Type in all cases: cell-based
[1] = target: T1, human TLR9 (Homo sapiens, UniProt Q9NR96); experiment: TLR9 inhibition reporter assay (HEK-Blue cells, SEAP reporter); settings: HEK-Blue cells overexpressing human TLR9; stimulated with ODN2006 5 nM; SEAP after 22 hour incubation
T1 construct: host or cells: HEK-Blue cells (HEK293-derived reporter line)
T1 sequence (Q9NR96 26-1032): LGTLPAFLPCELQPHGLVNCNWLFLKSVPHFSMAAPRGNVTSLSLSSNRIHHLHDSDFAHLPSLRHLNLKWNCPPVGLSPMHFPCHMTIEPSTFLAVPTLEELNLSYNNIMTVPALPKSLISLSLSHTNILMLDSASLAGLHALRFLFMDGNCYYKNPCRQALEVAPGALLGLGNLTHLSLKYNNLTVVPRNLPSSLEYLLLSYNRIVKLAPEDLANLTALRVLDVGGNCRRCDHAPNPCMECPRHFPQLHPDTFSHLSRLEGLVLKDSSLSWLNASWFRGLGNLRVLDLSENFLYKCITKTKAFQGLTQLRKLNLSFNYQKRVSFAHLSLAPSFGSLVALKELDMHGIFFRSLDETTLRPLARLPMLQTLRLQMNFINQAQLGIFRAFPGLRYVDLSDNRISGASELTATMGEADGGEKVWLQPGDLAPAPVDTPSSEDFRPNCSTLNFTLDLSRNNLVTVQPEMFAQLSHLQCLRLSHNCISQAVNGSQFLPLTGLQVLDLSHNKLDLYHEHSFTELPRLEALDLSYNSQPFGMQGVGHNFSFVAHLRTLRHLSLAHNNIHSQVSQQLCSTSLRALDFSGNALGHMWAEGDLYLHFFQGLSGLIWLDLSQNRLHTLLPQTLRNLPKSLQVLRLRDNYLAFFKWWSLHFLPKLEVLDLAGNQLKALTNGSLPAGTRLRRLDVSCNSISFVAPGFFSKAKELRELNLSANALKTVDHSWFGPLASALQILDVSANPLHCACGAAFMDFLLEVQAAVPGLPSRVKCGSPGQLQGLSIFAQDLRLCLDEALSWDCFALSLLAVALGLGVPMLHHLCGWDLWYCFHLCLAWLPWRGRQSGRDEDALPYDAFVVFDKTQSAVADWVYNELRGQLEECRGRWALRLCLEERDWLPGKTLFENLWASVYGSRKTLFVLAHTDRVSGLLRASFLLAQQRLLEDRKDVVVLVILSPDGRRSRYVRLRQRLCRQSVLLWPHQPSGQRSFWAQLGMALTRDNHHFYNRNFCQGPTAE
Protocol: (§1) TLR7/8/9 Inhibition Reporter Assays
(§2) HEK-Blue™-cells (Invivogen) overexpressing human TLR7, TLR8 or TLR9 receptors were used for screening inhibitors of these receptors using an inducible SEAP (secreted embryonic alkaline phosphatase) reporter gene under the control of the IFN-β minimal promoter fused to five NF-κB and AP-1-binding sites. Briefly, cells are seeded into Greiner 384 well plates (15000 cells per well for TLR7, 20,000 for TLR8 and 25,000 for TLR9) and then treated with test compounds in DMSO to yield a final dose response concentration range of 0.05 nM-50 μM. After a 30 minute compound pre-treatment at room temperature, the cells are then stimulated with a TLR7 ligand (gardiquimod at a final concentration of 7.5 μM), TLR8 ligand (R848 at a final concentration of 15.9 μM) or TLR9 ligand (ODN2006 at a final concentration of 5 nM) to activate NF-κB and AP-1 which induce the production of SEAP. After a 22 hour incubation at 37° C., 5% CO2, SEAP levels are determined with the addition of HEK-Blue™ Detection reagent (Invivogen), a cell culture medium that allows for detection of SEAP, according to manufacturer's specifications. The percent inhibition is determined as the % reduction in the HEK-Blue signal present in wells treated with agonist plus DMSO alone compared to wells treated with a known inhibitor.

[2] = target: T2, human TLR7 (Homo sapiens, UniProt Q9NYK1); experiment: TLR7 inhibition reporter assay (HEK-Blue cells, SEAP reporter); settings: HEK-Blue cells overexpressing human TLR7; stimulated with gardiquimod 7.5 μM; SEAP after 22 hour incubation
T2 construct: host or cells: HEK-Blue cells (HEK293-derived reporter line)
T2 sequence (Q9NYK1 27-1049): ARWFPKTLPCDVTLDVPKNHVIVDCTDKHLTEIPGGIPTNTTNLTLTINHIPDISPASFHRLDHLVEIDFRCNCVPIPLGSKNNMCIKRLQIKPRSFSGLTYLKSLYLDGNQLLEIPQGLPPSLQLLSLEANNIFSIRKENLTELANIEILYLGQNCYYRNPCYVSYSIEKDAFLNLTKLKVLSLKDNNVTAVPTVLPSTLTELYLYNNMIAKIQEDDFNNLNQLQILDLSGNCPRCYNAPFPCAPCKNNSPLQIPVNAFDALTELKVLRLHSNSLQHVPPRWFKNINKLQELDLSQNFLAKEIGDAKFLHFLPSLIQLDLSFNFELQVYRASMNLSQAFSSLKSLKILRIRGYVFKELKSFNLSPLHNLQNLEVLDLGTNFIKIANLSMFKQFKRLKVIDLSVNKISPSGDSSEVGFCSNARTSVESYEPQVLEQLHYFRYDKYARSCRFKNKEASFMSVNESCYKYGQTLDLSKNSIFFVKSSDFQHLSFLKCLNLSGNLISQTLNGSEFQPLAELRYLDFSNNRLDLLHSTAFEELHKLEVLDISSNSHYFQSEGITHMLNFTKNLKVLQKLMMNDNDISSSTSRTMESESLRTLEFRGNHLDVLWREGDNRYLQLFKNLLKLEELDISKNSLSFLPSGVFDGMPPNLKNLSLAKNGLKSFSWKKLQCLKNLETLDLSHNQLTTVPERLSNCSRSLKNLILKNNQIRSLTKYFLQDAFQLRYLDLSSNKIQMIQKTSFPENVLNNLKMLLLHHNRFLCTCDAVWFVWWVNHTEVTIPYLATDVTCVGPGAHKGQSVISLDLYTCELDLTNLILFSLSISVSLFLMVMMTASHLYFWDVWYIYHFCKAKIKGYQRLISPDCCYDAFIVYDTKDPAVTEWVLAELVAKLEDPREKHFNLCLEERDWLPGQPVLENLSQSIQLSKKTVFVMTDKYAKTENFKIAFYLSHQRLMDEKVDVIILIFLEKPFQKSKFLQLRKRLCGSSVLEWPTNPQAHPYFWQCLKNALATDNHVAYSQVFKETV
Protocol: as §1, §2

[3] = target: T3, human TLR8 (Homo sapiens, UniProt Q9NR97); experiment: TLR8 inhibition reporter assay (HEK-Blue cells, SEAP reporter); settings: HEK-Blue cells overexpressing human TLR8; stimulated with R848 15.9 μM; SEAP after 22 hour incubation
T3 construct: host or cells: HEK-Blue cells (HEK293-derived reporter line)
T3 sequence (Q9NR97 27-1041): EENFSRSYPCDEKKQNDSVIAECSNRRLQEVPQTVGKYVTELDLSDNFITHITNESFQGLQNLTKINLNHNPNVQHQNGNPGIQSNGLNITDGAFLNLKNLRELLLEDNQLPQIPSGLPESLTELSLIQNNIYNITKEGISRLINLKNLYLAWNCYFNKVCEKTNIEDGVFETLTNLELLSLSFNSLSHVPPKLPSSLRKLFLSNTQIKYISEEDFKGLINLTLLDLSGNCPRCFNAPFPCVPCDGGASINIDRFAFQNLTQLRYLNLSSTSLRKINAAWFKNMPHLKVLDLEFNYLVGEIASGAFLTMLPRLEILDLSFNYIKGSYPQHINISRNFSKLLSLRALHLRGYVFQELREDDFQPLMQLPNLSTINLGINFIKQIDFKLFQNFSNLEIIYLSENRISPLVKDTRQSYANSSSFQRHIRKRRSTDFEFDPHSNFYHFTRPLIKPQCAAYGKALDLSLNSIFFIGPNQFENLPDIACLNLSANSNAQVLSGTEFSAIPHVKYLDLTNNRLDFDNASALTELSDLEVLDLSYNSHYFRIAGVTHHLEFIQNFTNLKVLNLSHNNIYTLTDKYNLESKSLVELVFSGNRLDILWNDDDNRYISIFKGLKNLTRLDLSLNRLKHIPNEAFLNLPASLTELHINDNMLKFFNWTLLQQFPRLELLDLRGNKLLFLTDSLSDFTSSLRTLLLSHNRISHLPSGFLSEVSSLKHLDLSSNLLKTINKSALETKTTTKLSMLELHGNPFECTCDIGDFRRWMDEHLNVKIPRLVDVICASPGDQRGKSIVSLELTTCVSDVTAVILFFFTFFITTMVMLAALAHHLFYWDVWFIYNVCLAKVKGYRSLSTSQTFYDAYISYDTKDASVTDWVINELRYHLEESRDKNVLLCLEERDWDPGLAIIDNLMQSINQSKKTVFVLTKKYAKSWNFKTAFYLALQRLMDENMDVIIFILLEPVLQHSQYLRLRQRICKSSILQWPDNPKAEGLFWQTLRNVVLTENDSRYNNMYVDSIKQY
Protocol: as §1, §2

| Compound | IC50 [1] [nM] | IC50 [2] [nM] | IC50 [3] [nM] |
| --- | --- | --- | --- |
| Cn1c(-c2ccc(S(C)(=O)=O)cc2)cc2ncc(-c3ccc(N4CCNCC4)cc3)cc21 [Example 20, 1-Methyl-2-(4-(methylsulfonyl)phenyl)-6-(4-(piperazin-1-yl)phenyl)-1H-pyrrolo[3,2-b]pyridine] | 171 | 2000 | 2400 |
| CC(C)N1CCN(c2ccc(-c3cnc4cc(-c5ccc(S(C)(=O)=O)cc5F)n(C)c4c3)cc2)CC1 [Example 41] | 157 | 10000 | 1600 |
| CN(C)C1CCN(Cc2ccc(-c3cnc4cc(-c5ccc(S(C)(=O)=O)cc5)n(C)c4c3)cc2)CC1 [Example 24] | 14 | 4900 | > 50000 |
| COc1ccc(-c2cc3ncc(-c4ccc(N5CCN(C(C)C)CC5)cc4)cc3n2C)cc1C#N [Example 39] | 101 | > 25000 | > 25000 |
| Cn1c(-c2ccc(S(C)(=O)=O)cc2F)cc2ncc(-c3ccc(N4CCN5CCCC5C4)cc3)cc21 (stereo not drawn) [Example 42] | 436 | > 50000 | 2800 |
| CC(C)CN1[C@@H]2CC[C@H]1CC(N1CCC(c3cnc4cc(-c5ccc(S(C)(=O)=O)cc5)n(C)c4c3)CC1)C2 (stereo partly drawn) [Example 36] | 22 | 10500 | > 50000 |
| CC(C)N1CCN(c2ccc(-c3cnc4cc(-c5ccc(S(C)(=O)=O)cc5)n(C)c4c3)cc2)[C@H](C)C1 [Example 28] | 236 | 3200 | 5000 |
| COc1cc(-c2cc3ncc(-c4ccc(N5CCN(C(C)C)CC5)cc4)cc3n2C)ccc1C#N [Example 38, 4-[6-[4-(4-isopropylpiperazin-1-yl)phenyl]-1-methyl-pyrrolo[3,2-b]pyridin-2-yl]-2-methoxy-benzonitrile] | 505 | > 25000 | > 25000 |
| Cn1c(-c2ccc(S(C)(=O)=O)cc2)cc2ncc(-c3ccc(CN4CCC(C)(O)CC4)cc3)cc21 [Example 22] | 339 | 7900 | 14600 |
| CC(C)N1[C@H](C)CN(c2ccc(-c3cnc4cc(-c5ccc(S(C)(=O)=O)cc5)n(C)c4c3)cc2)C[C@@H]1C [Example 34] | 244 | > 50000 | > 50000 |
| CC(C)N1C[C@H](C)N(c2ccc(-c3cnc4cc(-c5ccc(S(C)(=O)=O)cc5)n(C)c4c3)cc2)[C@@H](C)C1 [Example 31] | 480 | 2500 | 4500 |
